These results are taken from US10041937B2, “Macrophage identification agent, and identification method, sorting method, evaluation method, screening method and kit using the macrophage identifier agent” (CANON KABUSHIKI KAISHA, priority 2013, dated 2018).

The structures appear in SMILES notation.

The subject of the assay is M1 macrophages and M2 macrophages differentiated from mouse bone marrow cells. Briefly: Subtype identification by staining and flow cytometry of M1 and M2 macrophages differentiated from mouse bone marrow cells. The assay is classed as cell-based, Balb/c mouse. Put shortly: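 Balb/c mouse bone marrow cells were differentiated to macrophages with 50 ng/mL M-CSF over two 3–4-day periods, then polarized for 3 days to M1 (interferon-γ plus polyliposaccharide) or M2 (IL-4). Live cells (aqua dye-negative) were analysed by flow cytometry; resolution R = |FM1−FM2|/(WM1+WM2) from histogram peak positions and widths indexed subtype discrimination.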
For orientation: In flow cytometry, cells or beads pass a laser one at a time.

Where [1] appears, read: fluorescence intensity at peak top of histogram, compound 1 μM, 37° C., 30 minutes.

For `CCOC(=O)CCN1C(=O)/C(=C\c2ccc3c(c2)C2CCCC2N3CC)SC1=S` (centres unmarked) [compound (1)], for the setting “R=|FM1−FM2|/(WM1+WM2), compound 1 μM”, the “Resolution ratio R” value is on record as 1.150. For the same molecule, under setting [1], the “Peak position of M1 macrophage” value is on record as 85.8 and the “Peak position of M2 macrophage” value was 12.4. For the setting “rated from resolution R”, the “Evaluation of macrophage subtype identification” value is reported as “A (The compound is very good in the subtype identification (namely, the resolution R is 0.5 or more))”. For the same molecule, for the setting “two compounds used in combination, each 1 μM”, the “subtype more strongly stained” value is recorded as “the M1 macrophages are more strongly stained than the M2 macrophages”.
